Experimental findings from ChEMBL document CHEMBL4002608, “Discovery of new MurA inhibitors using induced-fit simulation and docking” (Bioorg Med Chem Lett, 2017) are described below.

Active and inactive are the calls of the source. No cut-off for these calls is given here. Some results are limits rather than exact numbers.

In assay [1] the test system is Escherichia coli DH5[alpha]. The assay is described as follows: Inhibition of Escherichia coli DH5alpha C-terminal His6-tagged MurA expressed in Escherichia coli BL21(DE3) assessed as residual activity at 100 uM using UNAG as substrate after 15 mins in presence of PEP by malachite green dye based spectrophotometric method relative to control.
In assay [2] the test system is Escherichia coli. The assay is described as follows: Antibacterial activity against Escherichia coli ATCC 25922 after 20 to 24 hrs by broth microdilution assay. Type of assay: functional. For orientation: Dilution methods test growth across graded concentrations, often in twofold steps.
The nature of assay [3]: Inhibition of Escherichia coli DH5alpha C-terminal His6-tagged MurA expressed in Escherichia coli BL21(DE3) using UNAG as substrate after 15 mins in presence of PEP by malachite green dye based spectrophotometric method. On the set-up: species or system Escherichia coli DH5[alpha].
Assay [4] deals with Staphylococcus aureus. As to the kind of experiment: Antibacterial activity against Staphylococcus aureus ATCC 29213 after 20 to 24 hrs by broth microdilution assay. The class given is functional.
For assay [5], the system named is Escherichia coli DH5[alpha]. The assay is described as follows: Reversible inhibition of Escherichia coli DH5alpha C-terminal His6-tagged MurA expressed in Escherichia coli BL21(DE3) at 5 uM preincubated for 30 mins followed by compound dilution and subsequent substrate UNAG addition measured after 20 mins in presence of PEP by malachite green dye based spectrophotometric method.

Assay [6] has as its system Escherichia coli DH5[alpha]. The assay is described as follows: Irreversible inhibition of Escherichia coli DH5alpha C-terminal His6-tagged MurA expressed in Escherichia coli BL21(DE3) at 0.8 uM preincubated for 30 mins followed by compound dilution and subsequent substrate UNAG addition measured after 20 mins in presence of PEP by malachite green dye based spectrophotometric method.

Assay [7] in a line: Inhibition of Staphylococcus aureus MurA.
The nature of assay [8]: Inhibition of Escherichia coli MurA.
The nature of assay [9]: Inhibition of Enterobacter cloacae MurA.
Assay [10] can be described thus: Inhibition of Haemophilus influenzae MurA.
The nature of assay [11]: Inhibition of methicillin-resistant Staphylococcus aureus MurA.

Broadly, the IC50 is the midpoint of a concentration-inhibition curve.

Consider `O=C(C1=C(O)C(=O)N(c2nnc(SCc3ccccc3)s2)[C@@H]1c1ccc(O)cc1)c1ccco1`, for which the Activity in [1] came out at 62%. On the same count and under the same terms, next, `CS(=O)(=O)N1CCc2cc(C(=O)N3CCC(c4cc5ccccc5[nH]4)CC3)ccc21`: 85%. On the same count and under the same terms, for `Cc1ccccc1-n1cc(CN[C@H]2CCCN(c3ncccn3)C2)cn1` the value was 99%; for `C[C@@H](Oc1ccc2ccccc2c1)C(=O)NCc1nc(-c2ncccn2)no1`, 98%. Regarding `Cc1n[nH]c(S/C(=C/c2ccc(-c3cccc(C(=O)O)c3)o2)C(=O)O)n1`, the Activity in [1] was under 50%. Besides, the result in assay [2] and in assay [4] was inactive. The 50% inhibitory concentration (IC50) in assay [3] turned out to be 1000 nM. Moreover, the inhibition result in [5] is “Active”. For the compound `CO[C@H](C(=O)N1CCc2c(cnc(C)c2CNC(=O)c2cccs2)C1)c1ccccc1`, the Activity in [1] turned out to be 92%. Turning to `C[C@@H]1O[C@@H]1P(=O)(O)O` [FOSFOMYCIN], the Activity in assay [1] was under 50%. Also, the inhibition entry in [6] was “Active”. Moreover, in [3], the IC50 was determined as 41000 nM. On to `Cc1ccccc1-c1cccc(CN[C@H]2CCCN(c3ncccn3)C2)c1`, for which the Activity in assay [1] was found to be 86%. Same read-out and setting: for `O=C(O)c1nn(CCCc2ccccc2)c2c1CN(C(=O)c1ccc[nH]1)CC2` the value was 91%; for `O=C(Nc1cc(CCc2ccccc2)ccn1)[C@H]1CCCN(c2ncccn2)C1`, 99%.

Take `CCc1cc(C(=O)N2CCN[C@H](C(=O)O)C2)c(NC(=O)c2ccccc2)s1`: the Activity in assay [1] worked out at 63%. For the compound `O=c1oc2c(Cl)cc(O)c(Cl)c2s1`, the IC50 in assay [7] worked out at 1090 nM; in assay [8], 280 nM.

On to `CC(=O)N1CCN([C@H](C(=O)O)c2c(C(=O)O)n(Cc3ccccc3)c3ccccc23)CC1`, for which the Activity in [1] was 96%. Turning to `C=C1C(=O)OCC1O` (racemic) [(+/-)-TULIPALINE B], half-maximal inhibition in assay [8] (IC50) required 200 nM.

For the compound `CCOc1ccc(N2C(=O)[C@@H]3C4c5ccccc5C(C(=O)O)(c5ccccc54)[C@@H]3C2=O)c([N+](=O)[O-])c1`, the Activity in [1] stood at 78%. On the same count and under the same terms, for `Cc1c(C(=O)N2CCC[C@@H](C(N)=O)C2)sc2ncnc(NCCCc3ccccc3)c12` the value was 100%. Turning to `O=C(O)c1c([C@@H](C(=O)O)N2CCN(c3ccccn3)CC2)c2ccccc2n1Cc1ccccc1`, the Activity in assay [1] is 87%. Same read-out and setting: for `O=C(O)[C@H]1CC2(CCN(C(=O)c3cc4ccccc4[nH]3)CC2)CN1C(=O)C1CC1` the value was 100%.

For the compound `O=C(c1cnn(Cc2ccccc2)c1)N1CC=C(c2c[nH]c3ncccc23)CC1`, the Activity in assay [1] was under 50%. Moreover, the outcome in assay [2] and in assay [4] was inactive. Besides, in assay [3], the IC50 turned out to be 109000 nM. Take `Cc1cc(C)nc(-c2cccc3c2O[C@@H](CNC(=O)c2ccc(N4CCN(C)CC4)cc2)C3)n1`: the Activity in assay [1] stood at 98%. On to `O=C(O)c1ccc(-c2nccn2Cc2nc3ccccc3c(=O)[nH]2)cc1`, for which, in assay [1], the Activity was under 50%. Also, the result in assay [2] and in assay [4] was inactive. For the same compound, the IC50 in assay [3] was found to be 82000 nM. For the compound `CCOc1ccc(N2C(=O)[C@@H]3C4c5ccccc5C(C(=O)O)(c5ccccc54)[C@@H]3C2=O)cc1`, the Activity in assay [1] was 100%.

Compound `CC1=C(O)C(=O)[C@H]2O[C@@H]2C1=O` showed an IC50 in [9] of 14000 nM. With `O=C1[C@@H]2C3c4ccccc4C(C(=O)O)(c4ccccc43)[C@@H]2C(=O)N1c1cccc([N+](=O)[O-])c1`, the Activity in assay [1] turned out to be 98%. With `O=C(O)c1nn(CCCc2ccccc2)c2c1CN(C(=O)c1cnc[nH]1)CC2`, the Activity in assay [1] stood at 96%.

As for `O=C1C(Oc2ccc(O)cc2)=C(Cl)C(=O)c2ncccc21`, in assay [10], it took 2800 nM to reach half-maximal inhibition (IC50). For `O=C(O)[C@H]1C[C@@H](C(=O)N2CCCC2)CN(C(=O)c2[nH]nc3c2CCCC3)C1`, the Activity in assay [1] is 100%. `CN1CCN([C@H](C(=O)O)c2c(C(=O)O)n(Cc3ccccc3)c3ccccc23)CC1`: in assay [1], the Activity was determined as 94%. On to `c1ccc(CN2CC[C@@H](Nc3nncc(-c4cc5ccccc5o4)n3)C2)cc1`, for which the Activity in [1] turned out to be 82%. Consider `C=C(C(=O)OC)[C@@H]1[C@@H](CCCCCCCC)OC(=O)[C@@H]1O`, for which the IC50 in assay [11] was found to be 6700 nM; in [8] it was 2800 nM. For `O=C(O)COc1ccccc1[C@@H]1C2=C(CCCC2=O)Nc2nc(SCc3ccccn3)nn21`, the Activity in [1] amounted to 91%.

`CS(=O)(=O)N1CCN([C@H](C(=O)O)c2c(C(=O)O)n(Cc3ccccc3)c3ccccc23)CC1`: in [1], the Activity was found to be 99%.

Turning to `O=C(O)C[C@H]1c2ccccc2CCN1C(=O)c1cc(=O)[nH]c2ccccc12`, the Activity in assay [1] came to 85%. `O=[N+]([O-])/C(Br)=C/c1ccc(Br)o1`: the IC50 in [7] worked out at 3900 nM; in assay [8], 2800 nM. Take `O=C(CCN1CCCO1)N1CCc2[nH]nc(-c3cccc4ccccc34)c2C1`: the Activity in [1] was 86%. Same read-out and setting: next, `Cc1ncc2c(c1CNC(=O)c1cc3ccccc3[nH]1)CCN(C(=O)C1=CCCC1)C2`: 66%.
